Where two headings read alike, the source gives them in different places.
Assays:
Type in all cases: cell-based
MITF = assay: 멜라노사이트에서의 MITF 발현 촉진 효과 (western blot, 501mel); settings: for activity at 100 µM / activity at 50 ppm: IBMX 100 μM, icariside B2 50 ppm, negative control (DMSO 0.1%) = 100, read-out: MITF expression relative to negative control
[1] = test system: melanocytes (melan-a) [멜라닌 세포(melan-a)]; assay: 멜라닌 생성 촉진 효과 시험 (melanin production promoting effect, absorbance at 405 nm); settings: 3 days
[2] = test system: tyrosinase [티로시나제(tyrosinase)]; assay: 멜라노사이트에서의 티로시나제 발현 촉진 효과 (western blot, 501mel); settings: for activity at 100 µM / activity at 50 ppm: IBMX 100 μM, icariside B2 50 ppm, negative control (DMSO 0.1%) = 100, read-out: tyrosinase expression relative to negative control

| Compound | activity at 100 µM (MITF; 24 h) [%] | activity at 100 µM (MITF; 48 h) [%] | activity at 100 µM (MITF; 72 h) [%] | activity at 100 µM ([1]; 72 h, IBMX 100 μM, 37℃, negative control (0.1% DMSO) = 100, read-out: ratio of melanin quantity to negative control) [%] | activity at 100 µM ([2]; 24 h) [%] | activity at 100 µM ([2]; 48 h) [%] | activity at 100 µM ([2]; 72 h) [%] | MITF protein expression (result in words) (MITF; 50 ppm, 24-72 h) | activity at 50 ppm (MITF; 24 h) [%] | activity at 50 ppm (MITF; 48 h) [%] | activity at 50 ppm (MITF; 72 h) [%] | melanin production promoting effect compared with positive control (result in words) ([1]; 100 ppm vs IBMX 100 μM) | activity at 50 ppm ([1]; 72 h, 50 ppm, 37℃, negative control (0.1% DMSO) = 100, read-out: ratio of melanin quantity to negative control) [%] | activity at 100 ppm ([1]; 72 h, 100 ppm, 37℃, negative control (0.1% DMSO) = 100, read-out: ratio of melanin quantity to negative control) [%] | melanin production (result in words) [1] | tyrosinase protein expression (result in words) ([2]; 50 ppm, 24-72 h) | activity at 50 ppm ([2]; 24 h) [%] | activity at 50 ppm ([2]; 48 h) [%] | activity at 50 ppm ([2]; 72 h) [%] |
| --- | --- | --- | --- | --- | --- | --- | --- | --- | --- | --- | --- | --- | --- | --- | --- | --- | --- | --- | --- |
| CC(C)Cn1c(=O)n(C)c(=O)c2[nH]cnc21 [IBMX, 3-isobutyl-1-methylxanthine, reference compound] | 121 | 98 | 224 | 116 | 160 | 149 | 298 | – | – | – | – | – | – | – | – | – | – | – | – |
| CC(=O)C=CC12OC1(C)CC(OC1OC(CO)C(O)C(O)C1O)CC2(C)C (stereo not shown) [이카리시드 B2, icariside B2] | – | – | – | – | – | – | – | 단백질 발현을 상승시킴 | 85 | 107 | 115 | 양성대조군보다 높은 멜라닌 생성 촉진 효과 | 103 | 127 | 멜라닌 생성이 늘어났으며 | 단백질 발현을 상승시킴 | 126 | 132 | 180 |
